What was measured:
[1] = biological target: T1, AChE (Electrophorus electricus) (Electrophorus electricus, UniProt O42275); assay: AChE inhibition, Ellman's method; assay type: biochemical
T1 construct: purchased Sigma-Aldrich (Steinheim, Germany)
Description: (§1) The assay was performed in two steps.
(§2) All enzymes were obtained from Sigma-Aldrich (Steinheim, Germany). Ellman’s reagent and the substrates were obtained from Fluka (Buchs, Switzerland). The chemicals used to prepare the buffer solution were purchased from Merck (Darmstadt, Germany).
(§3) The enzyme inhibitory activities of the synthesized compounds were investigated by applying Ellman’s method. Enzyme solutions were dissolved in gelatin solution (1%; 2.5 units/mL). […] Then, the reaction was initiated by the addition of Ellman’s reagent 5,5′-Dithiobis(2-nitrobenzoic acid) (DTNB; 20 µL/well, 10 mM) and the substrate (10 µL/well, 75 mM). […] The enzyme solution was processed as a control. All readings were adjusted with blank-reading. All assays were performed in four independent wells. […] Absorbance differences between the two readings were taken, and percentage inhibition rates were calculated according to the following formula: % Inhibition=[(A(C)−A(B))−(A(I)−A(B))]/(A(C)−A(B))×100.
(§4) • Blank (B): the well in which the inhibitor compound and substrate were not added; • Control (C): the well where the inhibitor compound was not added; • A(B): the difference in absorbance reading for the blank; • A(C): the difference in absorbance reading for the control; • A(I): the difference in absorbance reading for the inhibitor compounds.

[2] = biological target: T2, AChE (Human) (Homo sapiens, UniProt P22303); assay: AChE inhibition, Ellman's method; assay type: biochemical
T2 construct: purchased Sigma-Aldrich (Steinheim, Germany)
Description: as §1, §2, §3, §4

[3] = biological target: T3, BChE (Equine) (Equus caballus, UniProt P81908); assay: biochemical; assay type: biochemical
T3 construct: purchased Sigma-Aldrich (Steinheim, Germany)
Description: as §1, §2, §3, §4

[4] = biological target: T4, BChE (Human) (Homo sapiens, UniProt P06276); assay: BChE inhibition, Ellman's method; assay type: biochemical; conditions: for IC50: read-out: BChE (Human) IC50
T4 construct: purchased Sigma-Aldrich (Steinheim, Germany)
Description: as §1, §2, §3, §4

[5] = tested on: murine fibroblast healthy cell line (NIH3T3); assay: MTT cell viability assay; assay type: cell-based; conditions: 24 h, 0.000316 µM to 1000 µM, read-out: IC50 against NIH3T3
Description: The active compounds (4a, 4b, 4e, 4i, 4m, 4n, 4o, and 4t) were chosen to determine their cytotoxic activity toward a murine fibroblast healthy cell line (NIH3T3). After incubating the cells with active compounds at concentrations of 0.000316 µM to1000 µM for 24 h, the cell viability was measured using the 3-(4,5-dimethylthiazol-2-yl)-2,5-diphenyltetrazolium (MTT) assay. The inhibition percentage was calculated for each concentration of the test compounds. The IC50 values of the compounds were determined using a non-linear regression analysis over the calculated percentage inhibition values, and they are presented in Table 2. Accordingly, the cytotoxicity test proposed that the active derivatives were nontoxic against NIH3T3 cells at their active concentrations against BChE.
Healthy murine embryonic fibroblast cells (NIH3T3 cell line) were used for the cytotoxicity tests. The cell line and selected compounds were prepared for an MTT assay as reported previously. The optical densities (OD) of 96 well plates were recorded at 540 nm. […]

T3 sequence (P81908 whole entry): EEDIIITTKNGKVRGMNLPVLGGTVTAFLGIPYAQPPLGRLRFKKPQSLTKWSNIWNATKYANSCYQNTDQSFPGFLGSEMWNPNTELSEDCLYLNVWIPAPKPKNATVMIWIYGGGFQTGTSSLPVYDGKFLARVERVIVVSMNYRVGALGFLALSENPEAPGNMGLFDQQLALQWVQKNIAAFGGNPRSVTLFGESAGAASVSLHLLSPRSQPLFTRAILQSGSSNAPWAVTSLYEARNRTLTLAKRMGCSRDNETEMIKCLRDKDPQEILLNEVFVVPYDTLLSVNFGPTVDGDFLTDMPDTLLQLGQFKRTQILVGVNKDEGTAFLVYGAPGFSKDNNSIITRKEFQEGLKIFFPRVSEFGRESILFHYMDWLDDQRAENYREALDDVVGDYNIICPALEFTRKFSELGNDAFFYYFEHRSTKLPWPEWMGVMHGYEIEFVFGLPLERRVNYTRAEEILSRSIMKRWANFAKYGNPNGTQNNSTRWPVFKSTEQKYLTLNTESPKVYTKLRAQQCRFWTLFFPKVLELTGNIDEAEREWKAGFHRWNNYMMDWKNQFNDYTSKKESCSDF
T4 sequence (P06276 29-602): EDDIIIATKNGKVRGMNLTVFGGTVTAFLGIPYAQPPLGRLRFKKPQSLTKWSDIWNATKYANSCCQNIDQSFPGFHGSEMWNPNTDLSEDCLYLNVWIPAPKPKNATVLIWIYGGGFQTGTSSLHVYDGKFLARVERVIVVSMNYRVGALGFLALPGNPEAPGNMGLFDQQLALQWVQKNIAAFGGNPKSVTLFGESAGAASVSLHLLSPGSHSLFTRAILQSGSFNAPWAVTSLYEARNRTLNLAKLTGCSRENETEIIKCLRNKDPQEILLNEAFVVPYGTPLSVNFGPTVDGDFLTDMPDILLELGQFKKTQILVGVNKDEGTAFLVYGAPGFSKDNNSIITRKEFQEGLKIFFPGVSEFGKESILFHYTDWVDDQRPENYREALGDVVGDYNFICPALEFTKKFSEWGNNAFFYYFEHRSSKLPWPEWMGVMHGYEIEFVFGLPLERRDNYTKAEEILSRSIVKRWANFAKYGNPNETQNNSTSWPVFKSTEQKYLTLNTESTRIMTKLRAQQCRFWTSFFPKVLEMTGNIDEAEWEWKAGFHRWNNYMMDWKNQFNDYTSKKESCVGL
T2 sequence (P22303 32-614): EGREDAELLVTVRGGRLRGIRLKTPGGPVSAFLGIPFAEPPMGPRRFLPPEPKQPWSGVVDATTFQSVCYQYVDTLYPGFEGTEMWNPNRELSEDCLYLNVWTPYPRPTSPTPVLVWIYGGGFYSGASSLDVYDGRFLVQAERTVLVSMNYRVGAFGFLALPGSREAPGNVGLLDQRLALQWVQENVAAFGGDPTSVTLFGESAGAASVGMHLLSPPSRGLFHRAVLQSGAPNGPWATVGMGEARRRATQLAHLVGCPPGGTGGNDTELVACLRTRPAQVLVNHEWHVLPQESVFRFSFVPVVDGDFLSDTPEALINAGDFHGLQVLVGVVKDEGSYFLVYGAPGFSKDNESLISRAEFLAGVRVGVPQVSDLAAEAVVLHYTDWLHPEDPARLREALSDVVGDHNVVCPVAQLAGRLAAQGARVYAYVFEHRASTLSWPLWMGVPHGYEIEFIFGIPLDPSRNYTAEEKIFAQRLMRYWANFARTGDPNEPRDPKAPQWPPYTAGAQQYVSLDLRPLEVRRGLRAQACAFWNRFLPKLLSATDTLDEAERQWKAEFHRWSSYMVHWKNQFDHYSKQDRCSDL
T1 sequence (O42275 24-633): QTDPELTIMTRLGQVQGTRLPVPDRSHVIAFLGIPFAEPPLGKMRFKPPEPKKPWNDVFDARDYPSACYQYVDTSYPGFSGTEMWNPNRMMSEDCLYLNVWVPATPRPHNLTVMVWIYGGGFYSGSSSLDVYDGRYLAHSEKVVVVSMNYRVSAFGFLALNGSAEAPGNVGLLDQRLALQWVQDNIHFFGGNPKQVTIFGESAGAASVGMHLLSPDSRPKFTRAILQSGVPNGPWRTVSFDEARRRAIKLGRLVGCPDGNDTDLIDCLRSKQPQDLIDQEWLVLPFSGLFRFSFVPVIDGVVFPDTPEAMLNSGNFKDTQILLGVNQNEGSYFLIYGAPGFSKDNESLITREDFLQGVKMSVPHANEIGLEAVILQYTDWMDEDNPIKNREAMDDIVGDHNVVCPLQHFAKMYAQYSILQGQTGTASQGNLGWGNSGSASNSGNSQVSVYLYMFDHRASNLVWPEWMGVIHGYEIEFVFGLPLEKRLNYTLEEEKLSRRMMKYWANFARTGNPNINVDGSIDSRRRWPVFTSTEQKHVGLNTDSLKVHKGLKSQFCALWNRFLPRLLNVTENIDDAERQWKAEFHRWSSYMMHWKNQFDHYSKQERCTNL

Compound	AChE (Electrophorus electricus) inhibitory activity (%) ± SD ([1]; 10^-3 M) [%]	AChE (Electrophorus electricus) inhibitory activity (%) ± SD ([1]; 10^-4 M) [%]	AChE (Human) inhibitory activity (%) ± SD ([2]; 10^-3 M) [%]	AChE (Human) inhibitory activity (%) ± SD ([2]; 10^-4 M) [%]	IC50 [3] [µM]	BChE (Equine) inhibitory activity (%) ± SD ([3]; 10^-3 M) [%]	BChE (Equine) inhibitory activity (%) ± SD ([3]; 10^-4 M)	BChE (Equine) inhibitory activity (%) ± SD ([3]; 10^-5 M) [%]	BChE (Equine) inhibitory activity (%) ± SD ([3]; 10^-6 M) [%]	BChE (Equine) inhibitory activity (%) ± SD ([3]; 10^-7 M) [%]	BChE (Equine) inhibitory activity (%) ± SD ([3]; 10^-8 M) [%]	BChE (Equine) inhibitory activity (%) ± SD ([3]; 10^-9 M) [%]	BChE (Human) inhibitory activity (%) ± SD ([4]; 10^-3 M) [%]	BChE (Human) inhibitory activity (%) ± SD ([4]; 10^-4 M)	BChE (Human) inhibitory activity (%) ± SD ([4]; 10^-5 M) [%]	BChE (Human) inhibitory activity (%) ± SD ([4]; 10^-6 M) [%]	BChE (Human) inhibitory activity (%) ± SD ([4]; 10^-7 M) [%]	BChE (Human) inhibitory activity (%) ± SD ([4]; 10^-8 M) [%]	BChE (Human) inhibitory activity (%) ± SD ([4]; 10^-9 M) [%]	IC50 [4] [µM]	further results
Cc1ccc(CN2CCN(C(=S)SCC(=O)Nc3c4ccccc4nc4ccccc34)CC2)cc1 [Compound 4o, 2-(9-Acridinylamino)-2-oxoethyl 4-(4-methylbenzyl)piperazine-1-carbodithioate]	94.97±3.61	25.30 ± 1.01	90.29±2.18	30.45 ± 1.15	1.07 ± 0.051	98.64±3.86	* 74.83 ± 2.17%	46.33±0.91	42.99±0.97	35.48±0.67	25.36±0.49	16.54±0.56	99.25±2.63	* 75.25 ± 2.08%	48.19±1.12	41.37±0.95	37.90±0.71	24.71±0.55	20.80±0.48	1.07 ± 0.039	IC50 [5]: > 1000 µM
O=C(CSC(=S)N1CCN(C(c2ccccc2)c2ccccc2)CC1)Nc1c2ccccc2nc2ccccc12 [Compound 4m, 2-(9-Acridinylamino)-2-oxoethyl 4-benzhydrylpiperazine-1-carbodithioate]	71.23±2.15	25.43 ± 1.21	75.18±1.21	27.38 ± 1.10	0.092 ± 0.001	99.65±3.86	* 98.96 ± 3.47%	90.78±3.92	80.30±2.56	40.34±0.61	30.24±0.70	18.98±0.20	98.18±2.71	* 97.50 ± 2.06%	92.54±2.45	81.25±2.08	44.61±0.79	29.11±0.63	17.00±0.33	0.093 ± 0.002	fold better BChE inhibition in comparison with donepezil ([4]; ratio of IC50 values): 15.4 fold; IC50 [5]: 214 µM
O=C(CSC(=S)N1CCN(c2ccc(Cl)cc2)CC1)Nc1c2ccccc2nc2ccccc12 [Compound 4i, 2-(9-Acridinylamino)-2-oxoethyl 4-(4-chlorophenyl)piperazine-1-carbodithioate]	86.41±2.91	35.91 ± 1.57	89.20±1.25	33.85 ± 1.15	2.04 ± 0.068	99.37±3.41	* 69.51 ± 1.16%	44.32±0.79	38.72±0.82	33.65±0.45	26.52±0.80	25.73±0.70	98.22±2.14	* 72.90 ± 1.08%	42.99±1.02	35.00±0.87	30.49±0.56	21.77±0.40	20.69±0.38	2.1 ± 0.085	IC50 [5]: > 1000 µM
O=C(CSC(=S)N1CCN(Cc2ccccc2)CC1)Nc1c2ccccc2nc2ccccc12 [Compound 4k, 2-(9-Acridinylamino)-2-oxoethyl 4-benzylpiperazine-1-carbodithioate]	58.74±1.69	8.62 ± 0.22	59.17±1.11	7.21 ± 0.18		74.62±2.75	25.14 ± 1.42%						70.98±2.39	20.65 ± 1.20%							
